Source: PubChem BioAssay AID2060487 (Molecular Pharmacology Branch, DTP, NCI, 2025)

Test system: 997537-175-T-J1-PDC complex spheroid viability
Test: Anticancer human tumor 997537-175-T-J1-PDC patient-derived colon adenocarcinoma cell line growth inhibition [GQUAD]
Conditions: for IC50: curve of first compound; for viability, T/C: stronger effect = lower value
In short: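 Tumor cells were grown as complex spheroids with HUVEC endothelial cells and mesenchymal stem cells as stroma. G-quadruplex stabilizers were combined with targeted agents over half-log dilutions from near the clinical Cmax, or from 10 microM.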

[1] = second compound 0.0316 µM, first compound 0.0316 µM
[2] = second compound 0.0316 µM, first compound 0.316 µM
[3] = second compound 0.1 µM, first compound 0.0316 µM
[4] = second compound 0.1 µM, first compound 0.316 µM
[5] = second compound 0.316 µM, first compound 0.0316 µM
[6] = second compound 0.316 µM, first compound 0.316 µM
[7] = second compound 1 µM, first compound 0.0316 µM
[8] = second compound 1 µM, first compound 0.316 µM
[9] = second compound 3.16 µM, first compound 0.0316 µM
[10] = second compound 3.16 µM, first compound 0.316 µM
[11] = second compound 10 µM, first compound 0.0316 µM
[12] = second compound 10 µM, first compound 0.316 µM
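Further: spheroids exposed to the agents for 7 days.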
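Wherever viability, T/C is given: 100% = DMSO vehicle control viability.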

## O=c1[nH]cc(F)c(=O)[nH]1 + CN(C)c1ccc(Nc2c3ccc(NC(=O)CCN4CCCC4)cc3nc3cc(NC(=O)CCN4CCCC4)ccc23)cc1
Second compound 0.0316 µM
  IC50: > 10 µM
Second compound 0.1 µM
  IC50: > 10 µM
Second compound 0.316 µM
  IC50: > 10 µM
Second compound 1 µM
  IC50: > 10 µM
Second compound 3.16 µM
  IC50: > 10 µM
Second compound 10 µM
  IC50: > 10 µM
[1]
  viability, T/C: 94.8%
Second compound 0.0316 µM, first compound 0.1 µM
  viability, T/C: 90.6%
[2]
  viability, T/C: 93.8%
Second compound 0.0316 µM, first compound 1 µM
  viability, T/C: 75.5%
Second compound 0.0316 µM, first compound 3.16 µM
  viability, T/C: 78.7%
Second compound 0.0316 µM, first compound 10 µM
  viability, T/C: 59.7%
[3]
  viability, T/C: 92.8%
Second compound 0.1 µM, first compound 0.1 µM
  viability, T/C: 83%
[4]
  viability, T/C: 87.9%
Second compound 0.1 µM, first compound 1 µM
  viability, T/C: 66.7%
Second compound 0.1 µM, first compound 3.16 µM
  viability, T/C: 99.8%
Second compound 0.1 µM, first compound 10 µM
  viability, T/C: 84.4%
[5]
  viability, T/C: 76.3%
Second compound 0.316 µM, first compound 0.1 µM
  viability, T/C: 85.6%
[6]
  viability, T/C: 76.9%
Second compound 0.316 µM, first compound 1 µM
  viability, T/C: 76.7%
Second compound 0.316 µM, first compound 3.16 µM
  viability, T/C: 99.3%
Second compound 0.316 µM, first compound 10 µM
  viability, T/C: 87.9%
[7]
  viability, T/C: 76.3%
Second compound 1 µM, first compound 0.1 µM
  viability, T/C: 65.8%
[8]
  viability, T/C: 87.9%
Second compound 1 µM, first compound 1 µM
  viability, T/C: 79.3%
Second compound 1 µM, first compound 3.16 µM
  viability, T/C: 81.5%
Second compound 1 µM, first compound 10 µM
  viability, T/C: 99.3%
[9]
  viability, T/C: 64.2%
Second compound 3.16 µM, first compound 0.1 µM
  viability, T/C: 92.6%
[10]
  viability, T/C: 86.3%
Second compound 3.16 µM, first compound 1 µM
  viability, T/C: 90.7%
Second compound 3.16 µM, first compound 3.16 µM
  viability, T/C: 102%
Second compound 3.16 µM, first compound 10 µM
  viability, T/C: 87.4%
[11]
  viability, T/C: 73.3%
Second compound 10 µM, first compound 0.1 µM
  viability, T/C: 79%
[12]
  viability, T/C: 85.8%
Second compound 10 µM, first compound 1 µM
  viability, T/C: 80%
Second compound 10 µM, first compound 3.16 µM
  viability, T/C: 97%
Second compound 10 µM, first compound 10 µM
  viability, T/C: 63.5%

## Cn1ncnc1[C@H]1c2n[nH]c(=O)c3cc(F)cc(c23)N[C@@H]1c1ccc(F)cc1 + Cc1[nH]c2ccc(F)cc2c1-c1nc2c3cccnc3c3ncccc3c2[nH]1
Second compound 0.0316 µM
  IC50: > 0.316 µM
Second compound 0.1 µM
  IC50: > 0.316 µM
Second compound 0.316 µM
  IC50: > 0.316 µM
Second compound 1 µM
  IC50: > 0.316 µM
Second compound 3.16 µM
  IC50: > 0.316 µM
Second compound 10 µM
  IC50: > 0.316 µM
Second compound 0.0316 µM, first compound 0.000999 µM
  viability, T/C: 101%
Second compound 0.0316 µM, first compound 0.00316 µM
  viability, T/C: 99.5%
Second compound 0.0316 µM, first compound 0.00999 µM
  viability, T/C: 104%
[1]
  viability, T/C: 71%
Second compound 0.0316 µM, first compound 0.0999 µM
  viability, T/C: 82.5%
[2]
  viability, T/C: 83.1%
Second compound 0.1 µM, first compound 0.000999 µM
  viability, T/C: 103%
Second compound 0.1 µM, first compound 0.00316 µM
  viability, T/C: 102%
Second compound 0.1 µM, first compound 0.00999 µM
  viability, T/C: 84.4%
[3]
  viability, T/C: 65.1%
Second compound 0.1 µM, first compound 0.0999 µM
  viability, T/C: 106%
[4]
  viability, T/C: 96.2%
Second compound 0.316 µM, first compound 0.000999 µM
  viability, T/C: 102%
Second compound 0.316 µM, first compound 0.00316 µM
  viability, T/C: 103%
Second compound 0.316 µM, first compound 0.00999 µM
  viability, T/C: 87.1%
[5]
  viability, T/C: 75.8%
Second compound 0.316 µM, first compound 0.0999 µM
  viability, T/C: 99.7%
[6]
  viability, T/C: 93.1%
Second compound 1 µM, first compound 0.000999 µM
  viability, T/C: 83.7%
Second compound 1 µM, first compound 0.00316 µM
  viability, T/C: 74.6%
Second compound 1 µM, first compound 0.00999 µM
  viability, T/C: 91.2%
[7]
  viability, T/C: 81.3%
Second compound 1 µM, first compound 0.0999 µM
  viability, T/C: 96.5%
[8]
  viability, T/C: 87.8%
Second compound 3.16 µM, first compound 0.000999 µM
  viability, T/C: 84.7%
Second compound 3.16 µM, first compound 0.00316 µM
  viability, T/C: 73.2%
Second compound 3.16 µM, first compound 0.00999 µM
  viability, T/C: 73.3%
[9]
  viability, T/C: 70.6%
Second compound 3.16 µM, first compound 0.0999 µM
  viability, T/C: 101%
[10]
  viability, T/C: 84.2%
Second compound 10 µM, first compound 0.000999 µM
  viability, T/C: 78%
Second compound 10 µM, first compound 0.00316 µM
  viability, T/C: 61.3%
Second compound 10 µM, first compound 0.00999 µM
  viability, T/C: 89.8%
[11]
  viability, T/C: 62.9%
Second compound 10 µM, first compound 0.0999 µM
  viability, T/C: 92.5%
[12]
  viability, T/C: 95.3%
